Measurements: patent publication US4055640A, “Compositions and methods for controlling the growth of bacteria, fungi and algae using certain derivatives of N-(2,2-dichlorovinyl)salicylamides” (Nippon Kayaku Co., Ltd., priority 1975, dated 1977)

How the values were obtained:
[1] = test system: Rhizoctonia solani (damping-off of cucumber); experiment: Exterminating test on damping-off of cucumber (Experimental Example 3); assay type: in vivo; conditions: soil drench 50 ml per pot, 10 days; for Percentage of healthy seedlings: 1,000 ppm; for pest or weed control at 1000 ppm: Rhizoctonia solani, soil, 240 h, 1,000 ppm, read-out: Percentage of healthy seedlings
Description: Exterminating test on damping-off of cucumber
The pots (diameter, 12 cm) were filled with field soil and then soil infected by adding Rhizoctonia solani in an amount of 5 grams per pot uniformly into the pots. Thereafter, 10 seeds of cucumber (variety: Azumamidori) were sown in each pot.
Eighty percent (80%) wettable powder of the present invention was diluted with water to obtain a suspension and each pot was drenched with the suspension in an amount of 50 milliliters. Then, the pots were transferred to the greenhouse. Fifty percent (50%) wettable powder of pentachloronitro benzene (hereinafter referred to as PCNB) on the market was used as a control and tested by the same method. After 10 days of the inoculation, degrees attacked by the pathogen were observed and a "Percentage of healthy seedlings" was calculated. The "Percentage of healthy seedlings" was calculated as follows: [formula]

[2] = test system: Fusarium wilt of cucumber; experiment: Exterminating test on Fusarium wilt of cucumber (Experimental Example 4); assay type: in vivo, Fusarium oxysporum f, cucumerinum; conditions: 500 ppm, soil drench 100 ml per pot, two weeks; for pest or weed control at 500 ppm: Fusarium, soil, 336 h, read-out: Percentage of healthy seedlings
Description: Exterminating test on Fusarium wilt of cucumber Twenty (20) grams of infected soil was added uniformly into each pot which was filled with steam sterilized field soil, then 18 seeds of cucumber (variety; Tokiwazibai) were sowed in each pot. Eighty percent (80%) wettable powder of the present invention was diluted with water to obtain a suspension, and each pot was drenched with the suspension in an amount of 100 ml. Fifty percent (50%) wettable powder of methyl-1-(butylcarbamoyl) 2-benzimidazol carbamate (hereinafter referred to as Benlate) on the market was used as a control and tested by the same method. After two weeks of planting, degrees attacked by the pathogen was observed and a "percentage of healthy seedlings" was calculated as follows: [formula]

[3] = test system: summer orange seedlings; experiment: Phytotoxicity on summer orange seedlings (Experimental Example 6); assay type: in vivo
Description: (§1) Exterminating test on citrus canker. 4-year-old summer orange seedlings, planted in unglazed pots having a diameter of 20 cm, were employed in this test. Eighty percent (80%) wettable powder of the present invention was diluted with water, and sprayed over the seedlings in an amount of 50 ml per pot. The leaves of the seedlings were inoculated Xanthomonas citri by means of a needle. After the inoculation, the seedlings were maintained in a moist chamber at 25° C for 24 hours. Then the pots were transferred into the greenhouse. Streptomycin 20% wettable powder was used as a control, and tested by the same method. After 2 weeks after the inoculation, degrees of disease attack were observed, and an "Effect Index" was calculated as follows: [formula]

[4] = test system: seedling blight of rice plant (pathogen Fusarium sp. and Rhizoctonia sp.); experiment: Exterminating test on seedling blight of rice plant (Experimental Example 1); assay type: in vivo; conditions: for Percentage of healthy seedlings at 0.25 g/box: soil, read-out: Percentage of healthy seedlings
Description: Exterminating test on seedling blight of rice plant Nursery boxes (60 × 30 × 3 cm) were filled with soil which were contaminated with pathogen (Fusarium sp. and Rhizoctonia sp.) The dust in which the present compound was contained in a ratio of 5% by weight was added in the box in a ratio of 5 grams per box and mixed well with soil. Thereafter, seeds of rice plant (variety: Nihonbare) were sowed in drills at a rate of 0.3 liter per box and grown up in a lighting chamber at 17° C. After 7 days from the sowing, the boxes were carried out in the field. Furthermore, 10 days thereafter the observations were made. Four percent (4%) dust of 3-hydroxy-5-methyl isoxazol (hereinafter referred to as hydroxyisoxazol) on the market was used as a control and tested by the same method. The test results are shown in Table 2 with a "percentage of healthy seedlings". The percentage of healthy seedlings was calculated as follows: […]

[5] = test system: Cladosporium cucumerinum (cucumber scab); experiment: Exterminating test on cucumber scab (Experimental Example 2); assay type: in vivo; parameters: scale not given here; conditions: 5 days after inoculation
Description: Exterminating test on cucumber scab
(§2) The cucumber seeds (variety: Sagamihanjiro) were sown in pots (diameter 18 cm). Eighty percent (80%) wettable powder (contents of active compound: 80%) of the present invention was diluted with water to obtain a suspension. The suspension was sprayed over the cucumber seedlings of the stage of 3-4 leaves in an amount of 20 ml per pot. After 24 hours, these pots were inoculated by means of spray of spore suspension of Cladosporium cucumerinum. The thus-inoculated seedlings were placed in a moist chamber at 20° C for 24 hours. The pots were continuously kept in a greenhouse at 20° C. The following wettable powders on the market were used as controls.
70% wettable powder of 1,2-bis (3-methoxy carbonyl-2-thioureid) benzene (hereinafter referred to as "thiophanate methyl") on the market.
75% wettable powder of ethylene bis (dithiocarbamic acid) manganese (hereinafter referred to as "maneb") on the market. After 5 days of the inoculation, degrees attached by the pathogen were observed and the results were shown in Table 3 with an "Infected Index". The "Infected Index" was calculated as follows: [formula] A : Number of leaves which were killed by hard attack B : Number of leaves severely attacked
C : number of leaves slightly attacked
D : number of healthy leaves

[6] = test system: Xanthomonas citri (citrus canker); experiment: Exterminating test on citrus canker (Experimental Example 6); assay type: in vivo; conditions: for pest or weed control at 1000 ppm: read-out: Effect Index, 1,000 ppm, 2 weeks after inoculation
Description: as §1

[7] = test system: cucumber seedlings (variety: Sagamihanjiro); experiment: Phytotoxicity on cucumber seedlings (Experimental Example 2); assay type: in vivo
Description: as §2

[8] = test system: Aspergillus niger, Penicillium citrinum, Cladosporium harbarum and chaetomium globosum; experiment: Degree of growth inhibition of fungi on treated beach plates (Example 17); assay type: cell-based; parameters: scale not given here; conditions: numerical rating, 2 weeks
Description: The emulsifiable concentrates which were prepared by Example 10 were diluted with water 400 times and 800 times to form emulsions.
(§3) The square plates of beach of which a side was 5 cm long and thickness was 5 mm were dipped into the emulsion for 2 minutes and dried for 24 hours at room temperature.
(§4) The square plates were placed on the surface of agar plates. The suspensions which contained spores of Aspergillus niger, Penicillium citrinum, Cladosporium harbarum and chaetomium globosum were respectively sprayed on the agar plates and the square plates.
The test fungi were cultivated in the incubator at the humidity of 95% and the temperature of 28° C for 2 weeks.
The degree of growth inhibition is defined in terms of the following numerical ratings.

[9] = test system: Aspergillus niger, Penicillium citrinum, Cladosporium harbarum and chaetomium globosum; experiment: Degree of growth inhibition of fungi on treated beach plates (Example 25); assay type: cell-based; parameters: scale not given here; conditions: numerical rating, 2 weeks
Description: The emulsifiable concentrates which were prepared by Example 20 were diluted with water 400 times and 800 times to form emulsions.
as §3, §4
The test fungi were cultivated in the incubator at the humidity of 95% and the temperature of 28° C for 2 weeks. The degree of growth inhibition is defined in terms of the following numerical ratings.

[10] = 408 h, 0.25g/box a.i., 5% dust mixed with soil

Row | SMILES | pest or weed control at 1000 ppm [1] [%] | pest or weed control at 500 ppm [2] [%] | Percentage of healthy seedlings at 0.25 g/box [4, 10] [%] | further results
1 | O=C(NC=C(Cl)Cl)c1cc(Br)ccc1[O-].O=C(NC=C(Cl)Cl)c1cc(Br)ccc1[O-].[Cu+2] [compound 27] | – | – | – | Percentage of healthy seedlings [1]: 85%; Percentage of healthy seedlings [2]: 58.0%
2 | O=C(NC=C(Cl)Cl)c1cc(Br)ccc1O [compound 3] | 70 | 62.4 | 65.3 | Phytotoxicity ([3]; 1,000 ppm): Nil
3 | Cc1ccc(C(=O)NC=C(Cl)Cl)c(O)c1 [compound 5] | 80 | 58.9 | 62 | Infected Index ([5]; 500 ppm): 10.7; pest or weed control at 1000 ppm ([6]; Xanthomonas citri, 336 h): 98.2%; Phytotoxicity ([7]; 500 ppm): Nil; Phytotoxicity ([3]; 1,000 ppm): Nil
4 | O=C(NC=C(Cl)Cl)c1cccc([N+](=O)[O-])c1O [compound 31] | 85 | 46 | 70.2 | –
5 | CC(=O)Oc1c(Cl)cc(Cl)cc1C(=O)NC=C(Cl)Cl [compound 32] | 75 | 73 | 69.8 | –
6 | O=C(NC=C(Cl)Cl)c1ccccc1OC(=O)C(Cl)Cl [compound 14] | 95 | 62.8 | 70.8 | Infected Index ([5]; 500 ppm): 7.9; pest or weed control at 1000 ppm ([6]; Xanthomonas citri, 336 h): 73.2%; Phytotoxicity ([7]; 500 ppm): Nil; Phytotoxicity ([3]; 1,000 ppm): Nil
7 | Cc1cccc(C(=O)NC=C(Cl)Cl)c1O [compound 4] | 90 | 68.7 | 76.6 | –
8 | COc1ccccc1C(=O)NC=C(Cl)Cl [compound 15] | 60 | 51.2 | 70.2 | Infected Index ([5]; 500 ppm): 8.9; Phytotoxicity ([7]; 500 ppm): Nil
9 | S=C([S-])NCCNC(=S)[S-].[Mn+2] [Maneb, ethylene bis (dithiocarbamic acid) manganese, reference compound] | – | – | – | Infected Index ([5]; 1,500 ppm): 12.5; Phytotoxicity ([7]; 1,500 ppm): Nil
10 | [H]/N=C(/N)N[C@H]1[C@H](O)[C@@H](O)[C@H](O[C@@H]2O[C@@H](C)[C@](O)(C=O)[C@H]2O[C@@H]2O[C@@H](CO)[C@H](O)[C@@H](O)[C@@H]2NC)[C@@H](N/C(N)=N\[H])[C@@H]1O [Streptomycin, reference compound] | – | – | – | pest or weed control at 200 ppm ([6]; Xanthomonas citri, 336 h, read-out: Effect Index, 200 ppm, 2 weeks after inoculation): 28.7%; Phytotoxicity ([3]; 200 ppm): Nil
11 | O=C(NC=C(Cl)Cl)c1cc(Cl)cc(Cl)c1O [compound 33] | – | 48 | 70.4 | –
12 | O=C(NC=C(Cl)Cl)c1cc(Br)ccc1O [compound 22] | – | – | – | Phytotoxicity ([3]; 1,000 ppm): Nil
13 | O=C(NC=C(Cl)Cl)c1ccccc1[O-].O=C(NC=C(Cl)Cl)c1ccccc1[O-].[Mn+2] [compound 28] | – | – | – | Percentage of healthy seedlings [1]: 100%; Percentage of healthy seedlings [2]: 57.0%; Degree of growth inhibition ([8]; 0.0125 %): 3; Degree of growth inhibition ([8]; 0.025 %): 3; Effect Index ([6]; 1,000 ppm, 2 weeks after inoculation): 73.6; Phytotoxicity ([3]; 1,000 ppm): Nil; Percentage of healthy seedlings ([4]; 0.25g/box a.i., 5% dust mixed with soil): 73.0%
14 | CC(=O)Oc1ccc(Br)cc1C(=O)NC=C(Cl)Cl [compound 8] | 75 | 73.3 | 71.3 | Degree of growth inhibition ([9]; 0.0125 %): 3; Degree of growth inhibition ([9]; 0.025 %): 3
15 | CC(=O)Oc1c(C(=O)NC=C(Cl)Cl)cccc1[N+](=O)[O-] [compound 35] | 95 | 79 | 71.2 | –
16 | COC(=O)Oc1ccccc1C(=O)NC=C(Cl)Cl [Compound No. 16, O-methoxycarbonyl-N-(2,2-dichlorovinyl) salicylamide] | 100 | 38.2 | 71.5 | –
17 | Cc1cc(O)no1 [Hydroxyisoxazol, 3-hydroxy-5-methyl isoxazol, reference compound] | – | – | – | Percentage of healthy seedlings at 0.2 g/box ([4]; 408 h, 0.20g/box a.i., 4% dust on the market (control)): 70.6%
18 | CC(C)COC(=O)Oc1ccccc1C(=O)NC=C(Cl)Cl [compound 18] | 100 | 42 | 72.1 | Degree of growth inhibition ([9]; 0.0125 %): 2; Degree of growth inhibition ([9]; 0.025 %): 3
19 | CCCCCCCCCCCC(=O)Oc1ccccc1C(=O)NC=C(Cl)Cl [compound 12] | 70 | 53.4 | 65 | –
